Data taken from the supplement of paper PMC3974653.
Where a name gives a salt, the structure may show the parent alone.

Test system: MTT (mouse pheochromocytoma)
Experiment: IC50 of cell viability (ATP content)
Settings: (24 or 48 h)
Method in brief: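 MTT mouse pheochromocytoma cells, cultured overnight at 37°C, 5% CO2 in DMEM with 5% FBS and 1% horse serum, were exposed in white 1536-well plates to library compounds in DMSO at final 0.5 nM to 46 µM (8 concentrations) for 24 or 48 hrs. CellTiter-Glo luminescence was normalised to positive-control (100%) and DMSO (0%) wells. A four-parameter logistic fit gave the IC50.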

| SMILES | IC50 of cell viability [µM] |
| --- | --- |
| CC(C)(C)NC[C@H](O)c1ccc(O)cc1Cl [MELUADRINE TARTRATE] | > 46 |
| O=C(NCCNCC(O)COc1ccc(O)cc1)N1CCOCC1 (configuration not stated) [XAMOTEROL] | > 46 |
| NC/C=C/C(=O)O [(E)-4-amino-2-butenoic acid] | > 46 |
| CN(C)CC/C=C1\c2ccccc2Sc2ccc(Cl)cc21 [Chlorprothixene] | > 46 |
| CC1(C)C(C(=O)[O-])N2C(=O)CC2[S+]1(=O)[O-] (configuration not stated) [Sulbactam] | > 46 |
| C#CC(C)(O)CC (configuration not stated) [Methylpentynolum] | > 46 |
| Cc1cc(C)cc(OCC2CNC(=O)O2)c1 (configuration not stated) [METAXALONE] | > 46 |
| Cn1cnc2c(F)c(Nc3ccc(Br)cc3Cl)c(C(=O)NOCCO)cc21 [Selumetinib] | > 46 |
| CN(C)[C@@H](Cc1ccccc1)c1ccccc1 [LEFETAMINE HYDROCHLORIDE] | > 46 |
| CC(C)(C)C(=O)NCCCC(=O)O [Pivagabine] | > 46 |
| C[C@]12CC[C@@H]3c4ccc(O)cc4CC[C@H]3[C@@H]1CCC2OC(=O)CCC1CCCC1 (some centres not stated) [ESTRADIOL CYPIONATE] | > 46 |
| CN(C)C(=S)SSC(=S)N(C)C [Tetramethylthiuram disulfide] | > 46 |
| O=C(O)c1ccc([S+](=O)([O-])N(Cl)Cl)cc1 [HALAZONE] | > 46 |
| CCCCCCCCNC(C)C(O)c1ccc(SC(C)C)cc1 (configuration not stated) [SULOCTIDIL] | > 46 |
| CCCCCCCCCCCCCCCC(=O)O[C@@H]1CC(C)=C(\C=C/C(C)=C\C=C/C(C)=C\C=C\C=C(C)\C=C\C=C(C)\C=C\C2=C(C)C[C@@H](OC(=O)CCCCCCCCCCCCCCC)CC2(C)C)C(C)(C)C1 [PHYSALIEN with TLC] | > 46 |
| CCCOC(=O)c1ccc(O)cc1 [Propylparaben] | > 46 |
| O=P(O)(O)O [phosphoric acid] | > 46 |
| CC(=O)Nc1ccc(OC(C)=O)cc1 [Diacetamate] | > 46 |
| NCc1ccc([S+](N)(=O)[O-])cc1 [Mafenide hydrochloride] | > 46 |
| C[C@]12CCC3C(CC(=C)C\4=C\C(=O)\C=C/[C@@]34C)C1CCC2=O (some centres not stated) [EXEMESTANE] | > 46 |
| CC1(C)OC[C@@H]2O[C@@]3(C(=O)O)OC(C)(C)O[C@@H]3[C@@H]2O1 [Dikegulac] | > 46 |
| C=C(NCc1ccccc1)c1ccccc1O | > 46 |
| CCCC[C@H](CC)CN1CN(C[C@@H](CC)CCCC)CC(C)(N)C1 [Hexetidine] | > 46 |

| SMILES | IC50 of cell viability [µM] |
| --- | --- |
| [Na+].CCN1CCN(C(=O)N[C@H](C(=O)N[C@H]2[C@@H]3SC(C)(C)[C@@H]([N@]3C2=O)C([O-])=O)C4=CC=CC=C4)C(=O)C1=O [Piperacillin sodium salt] | > 46 |
| N[C@@H](Cc1cc(I)c(Oc2cc(I)c(O)c(I)c2)c(I)c1)C(=O)O [Levothyroxine] | > 46 |
| CN(C)CCOC(c1ccc(Cl)cc1)c1ccccn1 (configuration not stated) [Carbinoxamine maleate] | > 46 |
| Cc1c(C)n(Cc2ccccc2)c2ccc(C(=O)OCCN(C)C)cc12 [Indocate] | > 46 |
| CCOc1cc(CC(=O)N[C@@H](CC(C)C)c2ccccc2N2CCCCC2)ccc1C(=O)O [Repaglinide] | > 46 |
| C[C@@H](C(=O)O)c1ccc(C(=O)c2cccs2)cc1 [Suprofen] | > 46 |
| COc1cc(C[C@H]2NCCc3cc(O)c(O)cc32)cc(OC)c1OC [Trimethoquinol] | > 46 |
| CNC1C(O)C(OC2C(NC(=O)C(O)CN)CC(N)C(OC3OC(CN)C(O)C(O)C3O)C2O)OCC1(C)O (configuration not stated) [Isepamicin] | > 46 |
| COc1ccc(Cl)cc1C(=O)NCCc1ccc([S+](=O)([O-])NC(=O)NC2CCCCC2)cc1 [GLYBURIDE] | > 46 |
| CCN1\C=C(\C(O)=O)C(=O)C2=C1C=C3OCOC3=C2 [OXOLINIC ACID] | > 46 |
| Cc1ccc(C2(O)CCN(CCCC(=O)c3ccc(F)cc3)CC2)cc1 [Moperone] | > 46 |
| CC(=O)Nc1ccc([S+](=O)([O-])Nc2cc(C)on2)cc1 [N-Acetyl Sulfamethoxazole] | > 46 |
| Cc1ccccc1C(OCCN(C)C)c1ccccc1 (configuration not stated) [Orphenadrine citrate salt] | > 46 |
| C[C@H]1C2Cc3ccc(O)cc3[C@]1(C)CCN2CC1CC1 (single isomer, unassigned; (+)) [(+)-Cyclazocine] | > 46 |
| CC1(S(=O)(=O)[O-])CC(=O)c2ccccc2C1=O (configuration not stated) [Menadione sodium bisulfite] | > 46 |
| CNCCCC12CCC(c3ccccc31)c1ccccc12 [MAPROTILINE] | > 46 |
| C1C\N=C(\COC2=C(C=CC=C2)C3CC3)N1 [CIRAZOLINE] | > 46 |
| Cc1ncc(C[n+]2csc(CCOP(=O)(O)O)c2C)c(N)n1 [MONOPHOSPHOTHIAMINUM] | > 46 |
| O=C1c2ccccc2C(=O)c2c1ccc(O)c2O [ALIZARIN] | > 46 |
| Cc1c(C)c2c(c(C)c1OC(=O)c1cccnc1)CC[C@@](C)(CCC[C@H](C)CCC[C@H](C)CCCC(C)C)O2 [TOCOPHEROL NICOTINATE] | > 46 |
| O=C(O)COc1ccc(C(=O)c2cccs2)c(Cl)c1Cl [ACIDUM TIENILICUM] | > 46 |
| Cc1ccccc1CNc1ncnc2c1ncn2C1OC(CO)C(O)C1O (configuration not stated) [Metrifudil] | > 46 |
| CN[C@H]1[C@@H](O)[C@@H](OC[C@@]1(C)O)O[C@@H]2[C@H](N)C[C@H](N)[C@H](O[C@@H]3O\C(=C/C[C@H]3N)CN)[C@H]2O [Sisomicin sulfate] | > 46 |

| SMILES | IC50 of cell viability [µM] |
| --- | --- |
| O=C/C=C/c1ccccc1 [CINNAMALDEHYDE] | > 46 |
| CCN[C@@H]1C[C@H](C)[S+](=O)([O-])c2sc([S+](N)(=O)[O-])cc21 [Dorzolamide hydrochloride] | > 46 |
| CC(O)(P(=O)(O)O)P(=O)(O)O [ETIDRONATE DISODIUM] | > 46 |
| CC(C)(C)C(=O)Oc1ccc([S+](=O)([O-])Nc2ccccc2C(=O)NCC(=O)[O-])cc1.O.O.O.O.[Na+] [SIVELESTAT SODIUM HYDRATE] | > 46 |
| C=C[C@]1(C)C[C@@H](OC(=O)CSCCN(CC)CC)[C@]2(C)C(C)CC[C@]3(CCC(=O)[C@H]32)[C@@H](C)[C@@H]1O (some centres not stated) [TIAMULIN] | > 46 |
| CC(C)(C)NC[C@H](O)COc1cccc2c1CCCC2=O [(-) -Levobunolol hydrochloride] | > 46 |
| NCC1CCC(C(=O)O)CC1 (configuration not stated) [Tranexamic acid] | > 46 |
| CC(C)(C#N)c1cc(Cn2cncn2)cc(C(C)(C)C#N)c1 [Anastrozole] | > 46 |
| Cc1nc(C)c(Cl)c(O)c1Cl [CLOPIDOL] | > 46 |
| CN1CCc2cc(Cl)c(O)cc2[C@H]2c3ccccc3CC[C@@H]21 [ECOPIPAMUM] | > 46 |
| C[C@H](/C=C/[C@H](C)C(C)(C)O)[C@H]1CC[C@H]2/C(=C/C=C3C[C@@H](O)C[C@H](O)C3)CCC[C@]12C [Paricalcitol] | > 46 |
| O=C(O)C(=O)Nc1cccc(-c2nnn[nH]2)c1 [Acitazanolast] | > 46 |
| CC(C)C(NC(=O)C(CC(=O)O)NC(=O)C(CCCCN)NC(=O)C(N)CCCNC(=N)N)C(=O)NC(Cc1ccc(O)cc1)C(=O)O (configuration not stated) [THYMOPENTINUM] | > 46 |
| CC(=O)O[C@@]1(CC[C@H]2[C@@H]3CCC/4=C/C(=O)CC[C@@H]4[C@H]3CC[C@]12C)C#C [NORETHISTERONE ACETATE] | > 46 |
| CN1N(C2=CC=CC=C2)C(=O)C(=C1/C)/N [Ampyrone] | > 46 |
| CC(C)=CC1C(C(=O)OCc2cccc(Oc3ccccc3)c2)C1(C)C (configuration not stated) [PHENOTHRIN] | > 46 |
| CCN(CCO)CCCC(C)Nc1ccnc2cc(Cl)ccc12 (configuration not stated) [HYDROXYCHLOROQUINE SULFATE] | > 46 |
| CC(C)(C)C(=O)OCOC(=O)[C@@H]1[N@]2[C@@H](SC1(C)C)[C@H](\N=C/N3CCCCCC3)C2=O [Pivmecillinam hydrochloride] | > 46 |
| CCN(Cc1ccc(Cl)nc1)/C(=C/[N+](=O)[O-])NC [NITENPYRAM] | > 46 |
| COC(=O)C(Cl)C(=O)OC [Dimethyl chloromalonate] | > 46 |
| CCC[C@H]1C[C@H](C(=O)N[C@@H]([C@@H]2O[C@@H](SC)[C@@H](O)[C@@H](O)[C@H]2O)[C@H](C)Cl)N(C)C1 [Clindamycin hydrochloride] | > 46 |
